{
  "source": "patent US20230398130A1",
  "about": "“METHODS AND COMPOSITIONS FOR DIFFERENTIATING STEM CELLS” (Massachusetts Institute of Technology, priority 2020, published 2023)",
  "key": {"ISC-enriched organoids [1]": {"test_system": "ISC-enriched organoids", "assay": "Primary screen, 384-well 2.5-D organoid differentiation (ENR+CD, 6 days, Target Selective Inhibitor Library, vs whole-plate median): ATP (CellTiter-Glo 3D, CTG)", "settings": "for Dose.FC.CTG: FC vs plate median; for Z.CTG: standard z score of FC; for Dose.FC.CTG (log 2 fold change): vs plate median"}, "ISC-enriched organoids [2]": {"test_system": "ISC-enriched organoids", "assay": "Primary screen, 384-well 2.5-D organoid differentiation (ENR+CD, 6 days): basal lysozyme secretion (LYZ.NS)", "format": "cell-based, murine", "settings": "for Dose.FC.LYZ.NS: FC vs plate median; for Z.LYZ.NS: standard z score of FC; for Dose.FC.LYZ.NS (log 2 fold change): vs plate median", "description": "(§1) High-throughput screening."}, "ISC-enriched organoids [3]": {"test_system": "ISC-enriched organoids", "assay": "Primary screen, 384-well 2.5-D organoid differentiation (ENR+CD, 6 days): carbachol-induced lysozyme secretion (LYZ.S)", "format": "cell-based, murine", "settings": "for Dose.FC.LYZ.S: FC vs plate median; for Dose.FC.LYZ.S (log 2 fold change): vs plate median", "description": "as §1"}},
  "data": [
    {"smiles": "COc1cc(OC)c(NC(=O)Nc2cc(C)on2)cc1Cl", "note": "[PNU-120596]", "values": [
      {"measurement": "Dose.FC.CTG", "setting": "ISC-enriched organoids [1]; Dose 0.08 uM, primary screen", "value": "−0.079", "unit": "log 2 fold change"},
      {"measurement": "Z.CTG", "setting": "ISC-enriched organoids [1]; Dose 0.08 uM", "value": "−0.188"},
      {"measurement": "Dose.FC.CTG", "setting": "ISC-enriched organoids [1]; Dose 0.40 uM, primary screen", "value": 0.085, "unit": "log 2 fold change"},
      {"measurement": "Z.CTG", "setting": "ISC-enriched organoids [1]; Dose 0.40 uM", "value": 0.204},
      {"measurement": "Dose.FC.CTG", "setting": "ISC-enriched organoids [1]; Dose 2.00 uM, primary screen", "value": 0.114, "unit": "log 2 fold change"},
      {"measurement": "Z.CTG", "setting": "ISC-enriched organoids [1]; Dose 2.00 uM", "value": 0.271},
      {"measurement": "Dose.FC.CTG", "setting": "ISC-enriched organoids [1]; Dose 10.00 uM, primary screen", "value": 0.138, "unit": "log 2 fold change"},
      {"measurement": "Z.CTG", "setting": "ISC-enriched organoids [1]; Dose 10.00 uM", "value": 0.330},
      {"measurement": "Dose.FC.LYZ.NS", "setting": "ISC-enriched organoids [2]; Dose 0.08 uM, primary screen", "value": 0.108, "unit": "log 2 fold change"},
      {"measurement": "Z.LYZ.NS", "setting": "ISC-enriched organoids [2]; Dose 0.08 uM", "value": 0.944},
      {"measurement": "Dose.FC.LYZ.NS", "setting": "ISC-enriched organoids [2]; Dose 0.40 uM, primary screen", "value": "−0.011", "unit": "log 2 fold change"},
      {"measurement": "Z.LYZ.NS", "setting": "ISC-enriched organoids [2]; Dose 0.40 uM", "value": "−0.098"},
      {"measurement": "Dose.FC.LYZ.NS", "setting": "ISC-enriched organoids [2]; Dose 2.00 uM, primary screen", "value": 0.068, "unit": "log 2 fold change"},
      {"measurement": "Z.LYZ.NS", "setting": "ISC-enriched organoids [2]; Dose 2.00 uM", "value": 0.594},
      {"measurement": "Dose.FC.LYZ.NS", "setting": "ISC-enriched organoids [2]; Dose 10.00 uM, primary screen", "value": "−0.060", "unit": "log 2 fold change"},
      {"measurement": "Z.LYZ.NS", "setting": "ISC-enriched organoids [2]; Dose 10.00 uM", "value": "−0.525"},
      {"measurement": "Dose.FC.LYZ.S", "setting": "ISC-enriched organoids [3]; Dose 0.08 uM, primary screen", "value": 0.058, "unit": "log 2 fold change"},
      {"measurement": "Dose.FC.LYZ.S", "setting": "ISC-enriched organoids [3]; Dose 0.40 uM, primary screen", "value": 0.081, "unit": "log 2 fold change"},
      {"measurement": "Dose.FC.LYZ.S", "setting": "ISC-enriched organoids [3]; Dose 2.00 uM, primary screen", "value": 0.065, "unit": "log 2 fold change"},
      {"measurement": "Dose.FC.LYZ.S", "setting": "ISC-enriched organoids [3]; Dose 10.00 uM, primary screen", "value": "−0.049", "unit": "log 2 fold change"}
    ]},
    {"smiles": "O=[N+]([O-])c1ccc2c(c1)S(=O)(=O)C=C2", "note": "[Stattic]", "values": [
      {"measurement": "Z.CTG (standard z score)", "setting": "ISC-enriched organoids [1]; Dose 0.08 uM, primary screen", "value": "−0.191"},
      {"measurement": "Dose.FC.CTG (log 2 fold change)", "setting": "ISC-enriched organoids [1]; Dose 0.08 uM, primary screen", "value": "−0.080"},
      {"measurement": "Z.CTG (standard z score)", "setting": "ISC-enriched organoids [1]; Dose 0.40 uM, primary screen", "value": "−0.011"},
      {"measurement": "Dose.FC.CTG (log 2 fold change)", "setting": "ISC-enriched organoids [1]; Dose 0.40 uM, primary screen", "value": "−0.005"},
      {"measurement": "Z.CTG (standard z score)", "setting": "ISC-enriched organoids [1]; Dose 2.00 uM, primary screen", "value": 0.078},
      {"measurement": "Dose.FC.CTG (log 2 fold change)", "setting": "ISC-enriched organoids [1]; Dose 2.00 uM, primary screen", "value": 0.033},
      {"measurement": "Z.CTG (standard z score)", "setting": "ISC-enriched organoids [1]; Dose 10.00 uM, primary screen", "value": "−0.060"},
      {"measurement": "Dose.FC.CTG (log 2 fold change)", "setting": "ISC-enriched organoids [1]; Dose 10.00 uM, primary screen", "value": "−0.025"},
      {"measurement": "Z.LYZ.NS (standard z score)", "setting": "ISC-enriched organoids [2]; Dose 0.08 uM, primary screen", "value": 1.131},
      {"measurement": "Dose.FC.LYZ.NS (log 2 fold change)", "setting": "ISC-enriched organoids [2]; Dose 0.08 uM, primary screen", "value": 0.130},
      {"measurement": "Z.LYZ.NS (standard z score)", "setting": "ISC-enriched organoids [2]; Dose 0.40 uM, primary screen", "value": 0.189},
      {"measurement": "Dose.FC.LYZ.NS (log 2 fold change)", "setting": "ISC-enriched organoids [2]; Dose 0.40 uM, primary screen", "value": 0.022},
      {"measurement": "Z.LYZ.NS (standard z score)", "setting": "ISC-enriched organoids [2]; Dose 2.00 uM, primary screen", "value": 1.276},
      {"measurement": "Dose.FC.LYZ.NS (log 2 fold change)", "setting": "ISC-enriched organoids [2]; Dose 2.00 uM, primary screen", "value": 0.147},
      {"measurement": "Z.LYZ.NS (standard z score)", "setting": "ISC-enriched organoids [2]; Dose 10.00 uM, primary screen", "value": "−0.186"},
      {"measurement": "Dose.FC.LYZ.NS (log 2 fold change)", "setting": "ISC-enriched organoids [2]; Dose 10.00 uM, primary screen", "value": "−0.021"},
      {"measurement": "Dose.FC.LYZ.S (log 2 fold change)", "setting": "ISC-enriched organoids [3]; Dose 0.08 uM, primary screen", "value": 0.150},
      {"measurement": "Dose.FC.LYZ.S (log 2 fold change)", "setting": "ISC-enriched organoids [3]; Dose 0.40 uM, primary screen", "value": 0.033},
      {"measurement": "Dose.FC.LYZ.S (log 2 fold change)", "setting": "ISC-enriched organoids [3]; Dose 2.00 uM, primary screen", "value": 0.082},
      {"measurement": "Dose.FC.LYZ.S (log 2 fold change)", "setting": "ISC-enriched organoids [3]; Dose 10.00 uM, primary screen", "value": "−0.019"}
    ]},
    {"smiles": "CC1(COc2ccc3c(c2)ncn3-c2ccc3cccc(N4CCC(N)CC4)c3n2)COC1", "note": "[Crenolanib (CP-868596)]", "values": [
      {"measurement": "Dose.FC.CTG", "setting": "ISC-enriched organoids [1]; Dose 0.08 uM, ENR+CD, 6 days", "value": "−0.069", "unit": "log 2 fold change"},
      {"measurement": "Z.CTG", "setting": "ISC-enriched organoids [1]; Dose 0.08 uM", "value": "−0.165"},
      {"measurement": "Dose.FC.CTG", "setting": "ISC-enriched organoids [1]; Dose 0.40 uM, ENR+CD, 6 days", "value": "−0.025", "unit": "log 2 fold change"},
      {"measurement": "Z.CTG", "setting": "ISC-enriched organoids [1]; Dose 0.40 uM", "value": "−0.059"},
      {"measurement": "Dose.FC.CTG", "setting": "ISC-enriched organoids [1]; Dose 2.00 uM, ENR+CD, 6 days", "value": 0.053, "unit": "log 2 fold change"},
      {"measurement": "Z.CTG", "setting": "ISC-enriched organoids [1]; Dose 2.00 uM", "value": 0.127},
      {"measurement": "Dose.FC.CTG", "setting": "ISC-enriched organoids [1]; Dose 10.00 uM, ENR+CD, 6 days", "value": "−0.338", "unit": "log 2 fold change"},
      {"measurement": "Z.CTG", "setting": "ISC-enriched organoids [1]; Dose 10.00 uM", "value": "−0.808"},
      {"measurement": "Dose.FC.LYZ.NS", "setting": "ISC-enriched organoids [2]; Dose 0.08 uM, ENR+CD, 6 days", "value": 0.121, "unit": "log 2 fold change"},
      {"measurement": "Z.LYZ.NS", "setting": "ISC-enriched organoids [2]; Dose 0.08 uM", "value": 1.051},
      {"measurement": "Dose.FC.LYZ.NS", "setting": "ISC-enriched organoids [2]; Dose 0.40 uM, ENR+CD, 6 days", "value": 0.051, "unit": "log 2 fold change"},
      {"measurement": "Z.LYZ.NS", "setting": "ISC-enriched organoids [2]; Dose 0.40 uM", "value": 0.441},
      {"measurement": "Dose.FC.LYZ.NS", "setting": "ISC-enriched organoids [2]; Dose 2.00 uM, ENR+CD, 6 days", "value": 0.122, "unit": "log 2 fold change"},
      {"measurement": "Z.LYZ.NS", "setting": "ISC-enriched organoids [2]; Dose 2.00 uM", "value": 1.065},
      {"measurement": "Dose.FC.LYZ.NS", "setting": "ISC-enriched organoids [2]; Dose 10.00 uM, ENR+CD, 6 days", "value": "−0.224", "unit": "log 2 fold change"},
      {"measurement": "Z.LYZ.NS", "setting": "ISC-enriched organoids [2]; Dose 10.00 uM", "value": "−1.951"},
      {"measurement": "Dose.FC.LYZ.S", "setting": "ISC-enriched organoids [3]; Dose 0.08 uM, ENR+CD, 6 days", "value": 0.094, "unit": "log 2 fold change"},
      {"measurement": "Dose.FC.LYZ.S", "setting": "ISC-enriched organoids [3]; Dose 0.40 uM, ENR+CD, 6 days", "value": 0.043, "unit": "log 2 fold change"},
      {"measurement": "Dose.FC.LYZ.S", "setting": "ISC-enriched organoids [3]; Dose 2.00 uM, ENR+CD, 6 days", "value": 0.149, "unit": "log 2 fold change"},
      {"measurement": "Dose.FC.LYZ.S", "setting": "ISC-enriched organoids [3]; Dose 10.00 uM, ENR+CD, 6 days", "value": "−0.292", "unit": "log 2 fold change"}
    ]}
  ]
}
